Reference: ChEMBL document CHEMBL3507680, “University of Dundee, Gates Library screen for HepG2 cell viability”

Test: Human HepG2 cell viability assay in 384 well format
Format: toxicity, cell-based
Design: dose 125 nL, time 70.5 hour; cytotoxicity at 70.5 h: concentration not given beside the values
Details: HepG2 cells, read-out: Inhibition

SMILES	cytotoxicity at 70.5 h [%]
Nc1cc(N2CCOCC(Cc3ccc4[nH]ccc4c3)C2)ncn1 (configuration not stated)	-0.988
CC(=O)Nc1nc(C2CCCN(C(=O)CN(C)C)C2)cs1 (configuration not stated)	-9.21
Nc1nccc(C2CCCCN2Cc2cccc(F)c2)n1 (configuration not stated)	-2.1
CC(=O)N1CCN(CCCOc2ccccc2F)CC(C(N)=O)C1 (configuration not stated)	-13.8
CN(C)c1cncc(C2CCCN2S(=O)(=O)c2cn(C)cn2)n1 (configuration not stated)	14.9
CC1(C2CCN(CC(N)=O)CC2)CN(Cc2ccccc2)C(=O)O1 (configuration not stated)	-5.3
COc1cccc(CC(=O)NC(C)c2nc3cccnc3n2C(C)C)c1 (configuration not stated)	-2.69
Cc1cnc(-c2nc(NC3CC3)ncc2-c2cc(C)no2)cn1	12
CC(=O)N1CCn2c(nnc2C2CCCCN2C(C)=O)C1 (configuration not stated)	-4.85
O=C(c1cnccn1)N1CCCC(Cc2cncc3ccccc23)C1 (configuration not stated)	-6.77
Cc1csc(NC(=O)c2cnc(C3CCCN(C)C3)cn2)n1 (configuration not stated)	-8.15
Cc1ncccc1Oc1cncc(C2CCCN2Cc2cncn2C)n1 (configuration not stated)	-2.83
CCc1nccn1-c1cncc(C2CCN(C(=O)COC)CC2)n1	-6.24
O=C(c1cccnc1)N1CCCC1c1cc[nH]n1 (configuration not stated)	23.9
CNc1cccc(C2CCCN(Cc3ncc[nH]3)C2)n1 (configuration not stated)	-2.87
CCc1nccn1-c1nccnc1C1CCCN(C(=O)COC)C1 (configuration not stated)	-6.06
CCn1cc(CN2CCN(CC(O)c3cc(C)ccc3C)CC2)c(C)n1 (configuration not stated)	-1.03
CCCNC(=O)c1cc(C2CCCN(Cc3ccccn3)C2)no1 (configuration not stated)	21.2
O=C(c1cc(C2CCCN(Cc3ccccn3)C2)no1)N1CCCC1 (configuration not stated)	-1.56
CCn1cc(CN2CCN(CC(O)c3ccc(C)cc3C)CC2)c(C)n1 (configuration not stated)	-6.8
Cc1cc(-c2cnc(C3CC3)nc2CN(C)C(=O)c2ccccn2)on1	-2.22
O=C1NC[C@]2(CC[C@@H](C(=O)N3CCC(O)CC3)CC2)Oc2ccccc21	-4.51
O=C1CN(C(=O)[C@H]2CC[C@]3(CC2)CNC(=O)c2ccccc2O3)CCN1	-8.28
Cn1ncc(Cl)c1C(=O)N1CCc2nc3sccc3c(=O)n2CC1	33.8
O=C(Cn1c(C(F)F)cc2cccnc21)NC1CCCC1	-2.74
CCN1CCCC(NC(=O)CCn2c(C(F)F)cc3cccnc32)C1 (configuration not stated)	-4.62

SMILES	cytotoxicity at 70.5 h [%]
CCn1ncc(S(=O)(=O)NC2(CN3CCOCC3)CCCCC2)c1C	-4.76
O=C(CCn1c(C(F)F)cc2cccnc21)NC1CCCC1	-6.41
Cc1cc(-c2cnc(C)nc2CN(C)C(=O)c2ccccn2)on1	-3.87
CC(C)(C)NC(=O)C1(Cc2ccccc2-c2ccncc2)CCOCC1	27.7
CC1CCc2n[nH]c(C(=O)NCCCc3ccco3)c2C1 (configuration not stated)	-2.37
CC1CCc2n[nH]c(C(=O)NCCCc3ccccn3)c2C1 (configuration not stated)	-7.91
Cc1cc(C)n(CC(C)NC(=O)C2(c3ccc(F)cc3)CC2)n1 (configuration not stated)	-10.8
CC1(C)COCCN1C(=O)CCc1nc(-c2ccncc2)no1	4.51
OC1CCN(c2nc(-c3ccccc3)no2)CC1	-11.6
Cc1cc(C)n(CC(C)NC(=O)C(C)(C)c2ccccc2F)n1 (configuration not stated)	6.99
Cc1nc2cc(F)ccc2cc1C(=O)N1CCN(CC(C)O)CC1 (configuration not stated)	-9.69
Cc1nc2cc(F)cc(C(=O)N3CCN(CC(C)O)CC3)c2nc1C (configuration not stated)	-9.3
O=C(c1ccccn1)N1CCN(C(c2ccccc2)C(F)(F)F)CC1 (configuration not stated)	11.9
O=C(c1cc[nH]n1)N1CCN(C(c2ccccc2)C(F)(F)F)CC1 (configuration not stated)	-8.27
CCc1ccc(C(NC(=O)CCS(C)(=O)=O)C(C)(C)C)o1 (configuration not stated)	-8.82
O=C(NC1CCc2nccn2C1)c1ccc(OCC2CC2)nc1 (configuration not stated)	-7.7
CCSCCC(C)NC(=O)Nc1cccn(C)c1=O (configuration not stated)	-10
Cc1nc2cc(F)cc(C(=O)N3CCN(CCO)CC3)c2nc1C	-5.18
Cc1ccc(S(=O)(=O)N(C)Cc2nccs2)cc1N(C)C	6.76
c1ccc(-c2nnc3n2CCN(c2nc(C4CC4)ns2)C3)cc1	-8
CCc1nsc(N2CCn3c(nnc3-c3ccccc3)C2)n1	-4.9
N#Cc1cc(F)ccc1NCc1ccc(Cn2cncn2)cc1	-3.41
COc1ccc(-c2noc(CCC(=O)N3CCOCC3(C)C)n2)cc1	-3.78
CCC(C)(C)NC(=O)c1scnc1Cl	12.7
CCc1noc(C)c1C(=O)NCCCC(CC)(CC)C1OCCO1	-5.2
CCc1ccc(C(NC(=O)CN(C)S(C)(=O)=O)C(C)(C)C)o1 (configuration not stated)	-7.8

SMILES	cytotoxicity at 70.5 h [%]
FC(F)(F)CCN(Cc1ccon1)C1CCC1	-7.34
COc1ccccc1CC(C)N(C)CCS(C)(=O)=O (configuration not stated)	-14.1
CCCC(=O)N(C)Cc1cccc(OC(C)C)c1	9.69
CN(Cc1cccc(OC(F)(F)F)c1)C(=O)Cc1ccon1	-13.6
CNS(=O)(=O)c1cccc(CNCc2ccsc2)c1	-1.74
CCCc1c(C(=O)N2CCN(c3nccc(OC)n3)CC2)cnn1C	-5.72
COCC(C)N1CCN(CCc2ccc3c(c2)CCO3)CC1 (configuration not stated)	21.8
O=C(NCC(F)(F)F)c1ccncc1	12.7
O=C(COCCOc1ccccc1)NC1CCN(c2ccccn2)CC1	-12.1
CC(C)(C)C(=O)NCC(=O)Nc1cccnc1	-6.42
Cn1nc(C(=O)NC2(c3ccc(Cl)cc3)CCCC2)ccc1=O	24.7
CCc1nnc2n1CCN(C(C(=O)NC1CC1)c1ccc(F)cc1)C2 (configuration not stated)	-15.2
CCc1nnc2n1CCN(C(C(=O)N(CC)CC)c1ccccc1)C2 (configuration not stated)	-12.7
COc1ccc(CNC(=O)c2ccoc2CN2CCNC(=O)C2)cc1	22.4
CC1Oc2c(cccc2C(=O)N2CCN(CC(C)(C)O)CC2)NC1=O (configuration not stated)	-10.7
CCC(O)CN1CCN(C(=O)c2cccc3c2OCC(=O)N3)CC1 (configuration not stated)	27.7
O=C(Cc1ccc(-n2cnnn2)cc1)Nc1cnn(CC(F)F)c1	-15.7
CSCC(CCO)Nc1nc(C(F)F)nc2ccccc12 (configuration not stated)	-7.1
O=C(O)CCc1ccc(S(=O)(=O)Nc2cnn(CC(F)(F)F)c2)cc1	-5.48
CC(C)NC1CCN(CCc2ccc3c(c2)CCO3)CC1	9.93
CC(=O)Nc1nc(CNc2ccccc2CCC(F)(F)F)cs1	-12
CC(C)n1nnnc1-c1ccc(NC(=O)C(C)(C)C#N)cc1F	4.99
CCC(CO)Nc1nc(C(F)F)nc2ccccc12 (configuration not stated)	-11.3
Cc1ccccc1-n1nccc1NC(=O)CCOC(C)C	11.4
CCOCCOC(C)C(=O)Nc1ccnn1-c1ccccc1C (configuration not stated)	-4.2
O=C(c1cc(C2CCCC2)no1)N1CCCCC1	-15.8

SMILES	cytotoxicity at 70.5 h [%]
NC(c1ccccc1)c1ccc(OC(F)F)cc1 (configuration not stated)	6.42
CC(C)c1noc(CCC(=O)Nc2cc(F)ccc2F)n1	12.9
CC(C)c1noc(C[S+]([O-])CC(=O)Nc2cc(F)ccc2F)n1 (configuration not stated)	-3.52
Cc1ccc(NC(=O)C2CCCN2C(=O)C2CC2)nc1 (configuration not stated)	-3.51
O=C(CCOc1ccccc1)NS(=O)(=O)Cc1ccccc1	-5.31
COCCNC(=O)CN1CCN(c2nc3cc(C)ccc3o2)CC1	-1.86
Cc1ccc(CN(C)C(=O)NCC(=O)NC(C)(C)C)s1	-3.18
O=C1CC(C(=O)Nc2nnc(-c3ccoc3)[nH]2)c2ccccc2N1 (configuration not stated)	0.202
O=C(c1cscn1)N(CCCO)S(=O)(=O)c1cccs1	0.658
CCNC(=O)NC1CCC(Oc2ccccc2C#N)CC1 (configuration not stated)	9.88
COc1cc(Br)cc(CNC2CCCNC2=O)c1O (configuration not stated)	2.96
Cc1ncc(S(=O)(=O)Nc2ccnn2C2CCCCC2)[nH]1	-1.01
COC(C)c1cccc(NCc2cccs2)c1 (configuration not stated)	-3.58
CN(C)C1(C(=O)NC2CCC(Oc3ccccc3C#N)CC2)CCC1 (configuration not stated)	-4.33
COCCN1CCN(CC2(O)CCCCC2)CC1	-0.488
Cc1cc(C2CCCN(C(=O)COc3ccc(F)cc3)C2)n[nH]1 (configuration not stated)	-8.58
COCCN(C)CC1CCCN1S(=O)(=O)c1cc(C)oc1C (configuration not stated)	-4.11
Cc1cc(C)n(CC2CCN(CC(O)Cn3cccn3)CC2)n1 (configuration not stated)	-1.67
Cc1cc(C2CCCN(Cc3noc(Cc4ccccc4)n3)C2)n[nH]1 (configuration not stated)	-1
Cc1cc(C)c2cc(C(=O)N3CCNC(=O)C3)[nH]c2c1	-8
CCCn1nnnc1COC(=O)C1COc2ccc(Cl)cc2C1 (configuration not stated)	-5.74
CN(C)c1ncc(C2Nc3cc(Cl)ccc3C3=NCCCN32)cn1 (configuration not stated)	-5.74
CC(C)Nc1nc(O)cc(C2CC(=O)N(Cc3ccccn3)C2)n1 (configuration not stated)	-5.33
CC(C)Nc1cccc(CC2CCN(C)C2)n1 (configuration not stated)	-5.89
